Measured values published in PMC6008299, “Impact of race on dose selection of molecular-targeted agents in early-phase oncology trials” (British Journal of Cancer, 2018).

Legend:
[1] = tested on: patients with advanced, refractory solid tumours; test: Phase I dose-escalation study J102 (Japan): safety, DLT, MTD; type: in vivo
Text: Studies were approved by the Institutional Review Board at the participating institutions and regulatory authorities. Written informed consent in English and Japanese was obtained from all patients prior to enrollment.
Secondary and exploratory objectives were to evaluate PK, tumour response, and PD effects. Treatment-emergent adverse events (TEAE) were graded using the Common Terminology Criteria for Adverse Events version 4.0. A dose-limiting toxicity (DLT) was defined as a grade ≥3 clinically significant toxicity, with the exceptions of grade ≥4 anaemia and prolonged grade 3 neutropenia. Both studies were open-label, phase I dose-escalation studies. In Japan, the study was conducted at a single centre, while the US study was conducted at three sites. […] In the US, an accelerated titration design was used at low doses followed by a mCRM with EWOC. Briefly, the dose was escalated based on safety data in a single patient until a grade 2 or higher toxicity was observed during cycle 1 or the DLT period (days 1–28). […] Prophylactic granulocyte colony-stimulating factor and antiemetics were not permitted during cycle 1.

Akt phosphorylation = test: Pharmacodynamics: Akt phosphorylation in platelet-rich plasma; type: in vivo, human; details: pre-treatment vs post-treatment, 32 patients
Protocol: In both studies, the PK profile of DS-7423 was characterised during cycle 1 on days 1 and 8. For PD analysis, glucose, C-peptide, and Akt phosphorylation were measured in platelet-rich plasma collected at predose, 1, 2, 4, 6, and 24 h after dosing on days 1 and 15. Tumour assessment was performed every two cycles using Response Evaluation Criteria in Solid Tumours (RECIST) version 1.1 in both studies. 18F-Fluoro-2-deoxy-D-glucose positron emission tomography ([18F]-FDG) was performed as an exploratory endpoint at baseline and on day 4.[10]

[2] = 96 mg, Japanese cohort (56–96 mg group, n = 6)
[3] = 4–32 mg Japanese cohort (n = 12)
[4] = 56–96 mg Japanese cohort (n = 6)

CC(=O)N1CCN(c2nc3c(N4CCOCC4)nc(-c4cnc(N)nc4)nc3n2CC(F)(F)F)C[C@H]1C [DS-7423]
Hyperglycaemia G3, n patients ([1]; 56 mg, Japanese cohort (56–96 mg group, n = 6)): 1
Diarrhoea G3, n patients [1, 2]: 1
Hyperglycaemia G3, n patients [1, 2]: 1
AST increased (TEAE), n patients ([1]; 160 mg Japanese cohort (n = 3)): 0
Abdominal pain (TEAE), n patients ([1]; 160 mg Japanese cohort (n = 3)): 1
Back pain (TEAE), n patients ([1]; 160 mg Japanese cohort (n = 3)): 0
Blood creatinine increased (TEAE), n patients ([1]; 160 mg Japanese cohort (n = 3)): 0
Constipation (TEAE), n patients ([1]; 160 mg Japanese cohort (n = 3)): 1
Cough (TEAE), n patients ([1]; 160 mg Japanese cohort (n = 3)): 2
Decreased appetite (TEAE), n patients ([1]; 160 mg Japanese cohort (n = 3)): 3
Decreased appetite G3, n patients ([1]; 160 mg Japanese cohort (n = 3)): 1
Dehydration (TEAE), n patients ([1]; 160 mg Japanese cohort (n = 3)): 0
Diarrhoea (TEAE), n patients ([1]; 160 mg Japanese cohort (n = 3)): 2
Diarrhoea G3, n patients ([1]; 160 mg Japanese cohort (n = 3)): 1
Dry mouth (TEAE), n patients ([1]; 160 mg Japanese cohort (n = 3)): 0
Dysgeusia (TEAE), n patients ([1]; 160 mg Japanese cohort (n = 3)): 2
Dyspnea (TEAE), n patients ([1]; 160 mg Japanese cohort (n = 3)): 1
Edema (TEAE), n patients ([1]; 160 mg Japanese cohort (n = 3)): 1
Fatigue (TEAE), n patients ([1]; 160 mg Japanese cohort (n = 3)): 1
Hyperglycaemia (TEAE), n patients ([1]; 160 mg Japanese cohort (n = 3)): 1 (1 G3)
Hyperglycaemia G3, n patients ([1]; 160 mg Japanese cohort (n = 3)): 1 (1 G3)
Lung infection/ pneumonia (TEAE), n patients ([1]; 160 mg Japanese cohort (n = 3)): 0
Nausea (TEAE), n patients ([1]; 160 mg Japanese cohort (n = 3)): 3
Pyrexia (TEAE), n patients ([1]; 160 mg Japanese cohort (n = 3)): 1
Rash (TEAE), n patients ([1]; 160 mg Japanese cohort (n = 3)): 2
Stomatitis (TEAE), n patients ([1]; 160 mg Japanese cohort (n = 3)): 2
Vomiting (TEAE), n patients ([1]; 160 mg Japanese cohort (n = 3)): 2
AST increased (TEAE), n patients ([1]; 240 mg Japanese cohort (n = 6)): 0
Abdominal pain (TEAE), n patients ([1]; 240 mg Japanese cohort (n = 6)): 1
Back pain (TEAE), n patients ([1]; 240 mg Japanese cohort (n = 6)): 1
Blood creatinine increased (TEAE), n patients ([1]; 240 mg Japanese cohort (n = 6)): 0
Constipation (TEAE), n patients ([1]; 240 mg Japanese cohort (n = 6)): 1
Cough (TEAE), n patients ([1]; 240 mg Japanese cohort (n = 6)): 1
Decreased appetite (TEAE), n patients ([1]; 240 mg Japanese cohort (n = 6)): 4
Dehydration (TEAE), n patients ([1]; 240 mg Japanese cohort (n = 6)): 0
Diarrhoea (TEAE), n patients ([1]; 240 mg Japanese cohort (n = 6)): 5
Dry mouth (TEAE), n patients ([1]; 240 mg Japanese cohort (n = 6)): 1
Dysgeusia (TEAE), n patients ([1]; 240 mg Japanese cohort (n = 6)): 3
Dyspnea (TEAE), n patients ([1]; 240 mg Japanese cohort (n = 6)): 0
Edema (TEAE), n patients ([1]; 240 mg Japanese cohort (n = 6)): 3
Fatigue (TEAE), n patients ([1]; 240 mg Japanese cohort (n = 6)): 2
Hyperglycaemia (TEAE), n patients ([1]; 240 mg Japanese cohort (n = 6)): 1 (1 G4)
Hyperglycaemia G4, n patients ([1]; 240 mg Japanese cohort (n = 6)): 1 (1 G4)
Lung infection/ pneumonia (TEAE), n patients ([1]; 240 mg Japanese cohort (n = 6)): 1 (1 G3)
Lung infection/ pneumonia G3, n patients ([1]; 240 mg Japanese cohort (n = 6)): 1 (1 G3)
Nausea (TEAE), n patients ([1]; 240 mg Japanese cohort (n = 6)): 6
Pyrexia (TEAE), n patients ([1]; 240 mg Japanese cohort (n = 6)): 2
Rash (TEAE), n patients ([1]; 240 mg Japanese cohort (n = 6)): 5
Stomatitis (TEAE), n patients ([1]; 240 mg Japanese cohort (n = 6)): 6
Vomiting (TEAE), n patients ([1]; 240 mg Japanese cohort (n = 6)): 3
AST increased (TEAE), n patients [1, 3]: 0
Abdominal pain (TEAE), n patients [1, 3]: 1
Back pain (TEAE), n patients [1, 3]: 1
Blood creatinine increased (TEAE), n patients [1, 3]: 1
Constipation (TEAE), n patients [1, 3]: 3
Cough (TEAE), n patients [1, 3]: 1
Decreased appetite (TEAE), n patients [1, 3]: 7
Dehydration (TEAE), n patients [1, 3]: 0
Diarrhoea (TEAE), n patients [1, 3]: 6
Dry mouth (TEAE), n patients [1, 3]: 0
Dysgeusia (TEAE), n patients [1, 3]: 3
Dyspnea (TEAE), n patients [1, 3]: 2
Edema (TEAE), n patients [1, 3]: 2
Fatigue (TEAE), n patients [1, 3]: 5
Hyperglycaemia (TEAE), n patients [1, 3]: 0
Lung infection/ pneumonia (TEAE), n patients [1, 3]: 0
Nausea (TEAE), n patients [1, 3]: 6
Pyrexia (TEAE), n patients [1, 3]: 0
Rash (TEAE), n patients [1, 3]: 3
Stomatitis (TEAE), n patients [1, 3]: 3
Vomiting (TEAE), n patients [1, 3]: 4
AST increased (TEAE), n patients [1, 4]: 1
Abdominal pain (TEAE), n patients [1, 4]: 1
Back pain (TEAE), n patients [1, 4]: 0
Blood creatinine increased (TEAE), n patients [1, 4]: 0
Constipation (TEAE), n patients [1, 4]: 1
Cough (TEAE), n patients [1, 4]: 1
Decreased appetite (TEAE), n patients [1, 4]: 2
Dehydration (TEAE), n patients [1, 4]: 0
Diarrhoea (TEAE), n patients [1, 4]: 4
Dry mouth (TEAE), n patients [1, 4]: 1
Dysgeusia (TEAE), n patients [1, 4]: 1
Dyspnea (TEAE), n patients [1, 4]: 0
Edema (TEAE), n patients [1, 4]: 1
Fatigue (TEAE), n patients [1, 4]: 3
Hyperglycaemia (TEAE), n patients [1, 4]: 2
Lung infection/ pneumonia (TEAE), n patients [1, 4]: 0
Nausea (TEAE), n patients [1, 4]: 1
Pyrexia (TEAE), n patients [1, 4]: 0
Rash (TEAE), n patients [1, 4]: 4
Stomatitis (TEAE), n patients [1, 4]: 1
Vomiting (TEAE), n patients [1, 4]: 1
Grade 3 DLT ([1]; Japanese study, 240-mg cohort): lung infections and hyperglycaemia
MTD ([1]; Japanese study, Asian patients): 240 mg
Akt phosphorylation in platelet-rich plasma (Akt phosphorylation): inhibited compared with that at baseline
